What was measured:
[1] = test system: RT-4 human bladder cancer cells; assay: MTT cell proliferation, RT-4; assay type: cell-based
Description: Cell proliferation was measured using dimethylthiazoldiphenyltetrazolium (MTT) reduction (Mosman et al. J. Immunol. Methods 65:55, 1983). Unless otherwise stated, 100 Al of 5 mg of MTT (Sigma-Aldrich, St. Louis, Mo., USA) dissolved in 1 ml of PBS was added into each well. After 4 h, medium was removed from each well, 1.0 ml of acid-isopropanol (0.04 N HCI in isopropanol) was added and reduced MTT was solubilized by mixing. Absorbency of the reaction product was measured at a wavelength of 570 nm using a multiplate spectrophotometer reader (Elx800 Model, Bio-TEK Instruments Inc., Winooski, Vt., USA). […] PC-3, LNCAP and Du-145 human prostate cancer cells; MCF-7 human breast cancer cells; HT-1080 human fibrosarcoma cancer cells; B16F1 murine melanoma cells; and, UMUC-3, RT-4, HT-1376 and T-24 human bladder cancer cells were incubated with 0.8, 8.0 and 80 μg/ml of 5.0-7.5 x 10^5 Da HA (Table 2). […] MTT was used at 50 μl per well. HT-1376, RT-4 and T-24 human bladder cancer cells were incubated with 0.8 pg/ml of 5.0-7.5 x 10^5 Da HA +1.0 ug/ml of MCC (Table 5). […] MCF-7 human breast cancer cells; RT-4, T-24, HT-1376 and UMUC-3 human bladder cancer cells; and, PC-3, Du-145 and LNCaP prostate cancer cells (Table 8)

[2] = test system: MCF-7 human breast cancer cells; assay: MTT cell proliferation, MCF-7; assay type: cell-based; conditions: Homo sapiens, MCF7, 5-FU at 10 μg/ml alone (saline instead of HA)
Description: (§1) Cell proliferation was measured using dimethylthiazoldiphenyltetrazolium (MTT) reduction (Mosman et al. J. Immunol. Methods 65:55, 1983). Unless otherwise stated, 100 Al of 5 mg of MTT (Sigma-Aldrich, St. Louis, Mo., USA) dissolved in 1 ml of PBS was added into each well. After 4 h, medium was removed from each well, 1.0 ml of acid-isopropanol (0.04 N HCI in isopropanol) was added and reduced MTT was solubilized by mixing. Absorbency of the reaction product was measured at a wavelength of 570 nm using a multiplate spectrophotometer reader (Elx800 Model, Bio-TEK Instruments Inc., Winooski, Vt., USA).
(§2) Unless stated otherwise 1.0 x 10^5 cells/ml were seeded in 6-well flat-bottom tissue culture plates and were maintained for 48 h at 370 C in a 5% CO2 atmosphere.
(§3) PC-3, LNCAP and Du-145 human prostate cancer cells; MCF-7 human breast cancer cells; HT-1080 human fibrosarcoma cancer cells; B16F1 murine melanoma cells; and, UMUC-3, RT-4, HT-1376 and T-24 human bladder cancer cells were incubated with 0.8, 8.0 and 80 μg/ml of 5.0-7.5 x 10^5 Da HA (Table 2).
(§4) Unless stated otherwise 2.0 x 10^4 cells/ml were seeded in 24-well plates and were maintained for 48 h at 370 C in a 5% CO2 atmosphere. MTT was used at 50 μl per well.
(§5) T-24 human bladder cancer cells, PC-3 and Du-145 human prostate cancer cells, and MCF-7 human breast cancer cell were incubated with saline or with 80.0 jg/ml of 5.0-7.5 x 105 Da HA +1.0 μg/ml of M-DNA (Table 4).
MTT was used at 50 µl per well.
Example 8 s HA potentiation of the anti-neoplastic effect ofchemotherapeutic drugs RT-4 human bladder cancer cells and MCF-7 human breast cancer cells were incubated as in Example 6 with 0.0, 0.008 or 0.08 pg/ml of 5.0-7.5 x 10^5 Da HA +0.1 jg/ml of CIS, +1.0 jg/ml of 5-FU or +10 jig/ml of 5-FU (Table 7).
(§6) CD44 expression and the inhibition of proliferation by 5.0-7.5 x 10^5 Da HA were measured using Jurkat T cell leukemia cells; MCF-7 human breast cancer cells; RT-4, T-24, HT-1376 and UMUC-3 human bladder cancer cells; and, PC-3, Du-145 and LNCaP prostate cancer cells (Table 8)

LNCaP tumors (CD44 null) [3] = assay: Example 15: HA, CIS, 5-FU on LNCaP tumors in mice; assay type: in vivo, male nude BALB/c mice; conditions: vs Group 1 (saline); intravenously day 0 and at 3 day intervals for 4 weeks; HA 0.16-16.0 mg/kg, CIS or 5-FU 0.1-10.0 mg/kg
Description: Effect of saline, HA, CIS, 5-FU, HA+CIS andHA+5-FU on LNCaP tumors in mice LNCaP cancer cells (CD44 null) are implanted subcutaneously into 224 male nude BALB/c mice. The mice are divided into 28 groups of 8 mice (Tablel5).
Saline, HA, CIS, 5-FU, HA+CIS and HA+5FU are administered intravenously in saline on day 0 and at 3 day intervals-for 4 weeks-(1IOinjections) at which time the mice are sacrificed and tumor mass and number of metastasis are determined.

PC3 tumors [4] = assay: Example 14: HA, CIS, 5-FU on PC3 tumors in mice; assay type: in vivo, male nude BALB/c mice; conditions: vs Group 1 (saline); intravenously day 0 and at 3 day intervals for 4 weeks; HA 0.16-16.0 mg/kg, CIS or 5-FU 0.1-10.0 mg/kg
Description: PC-3 cancer cells are implanted subcutaneously into 224 male nude BALB/c mice. The mice are divided into 28 groups of 8 mice (Table 14).
(§7) Saline, HA, CIS, 5-FU, HA+CIS and HA+5FU are administered intravenously in saline on day 0 and at 3 day intervals for 4 weeks (10 injections) at which time the mice are sacrificed and tumor mass and number of metastases are determined.

B16F1 tumors [5] = assay: Example 16: HA, CIS, 5-FU on B16F1 tumors in mice; assay type: in vivo, female C57BL/6 mice; conditions: vs Group 1 (saline); intravenously day 0 and at 3 day intervals for 4 weeks; HA 0.16-16.0 mg/kg, CIS 0.01-1.0 mg/kg or 5-FU 1.0-100.0 mg/kg
Description: Effect of saline, HA, CIS, 5-FU, HA+CIS and HA+5-FU on B16F1 tumors in mice 5 B16F1 cancer cells are implanted subcutaneously into 224 female C57BL/6 mice. The mice are divided into 28 groups of 8 mice (Table 16).
as §7

[6] = test system: MCF-7 human breast cancer cells; assay: MTT cell proliferation, MCF-7; assay type: cell-based; conditions: MCF-7 (2.5 X 10^5 cells/ml); oligonucleotide 100 μg/ml alone (HA 0.0 μg/ml)
[7] = test system: PC-3 human prostate cancer cells; assay: MTT cell proliferation, PC-3; assay type: cell-based; conditions: 48 h
Description: as §1, §2, §3
(§8) PC-3. LNCaP and Du-145 human prostate cancer cells were incubated with 8.0 jg/ml of 5.0-7.5 x 105 Da HA or of <1.5 x 10^4 Da HA (Table 3).
as §4, §5, §6

[8] = test system: LNCaP human prostate cancer cells; assay: MTT cell proliferation, LNCaP; assay type: cell-based; conditions: 48 h
Description: as §1, §2, §3, §8, §6

[9] = test system: Du-145 human prostate cancer cells; assay: MTT cell proliferation, Du-145; assay type: cell-based; conditions: HA 8.0 μg/ml, 48 h
Description: as §1, §2, §3, §8, §4, §5, §6

B16F1 tumors [10] = assay: Example 13: HA, M-DNA, MCC on B16F1 tumors in mice; assay type: in vivo, female C57BL/6 mice; conditions: vs Group 1 (saline); intratumorally day 0 and at 3 day intervals for 4 weeks; HA 0.16-16.0 mg/kg, M-DNA or MCC 0.02-2.0 mg/kg
Description: Example 13 Effect of saline, HA, M-DNA, MCC, HA+M-DNA and HA +MCC on B16F1 tumors in mice B16F I cancer cells are implanted […] into 224 female C57BL/6 mice. The mice are divided into 28 groups of 8 mice (Table 13).
Saline, HA, M-DNA, MCC, HA+M-DNA and HA+MCC are administered intratumorally in saline on day 0 and at 3 day intervals for 4 weeks (10 injections) at which time the mice are sacrificed and tumor mass and number of metastases are determined.

[11] = test system: rectal, gastric, breast, prostate and endometrial cancers; conditions: HA >750 mg/kg administered with various other therapeutic agents over various periods of time; cited from earlier work
colon-26 cancer cells = conditions: HA alone; colon-26 cells express high levels of HA receptors; cited from earlier work
[12] = test system: B16F10 murine melanoma tumor; conditions: HA 1 mg/ml over 7 days by Alzet osmotic pump into the immediate vicinity of the tumor; cited from earlier work
PC3 tumors [13] = assay: Example 11: HA, M-DNA, MCC on PC3 tumors in mice; assay type: in vivo, male nude BALB/c mice; conditions: vs Group 1 (saline); intravenously day 0 and at 3-day intervals for 4 weeks; HA 0.16-16.0 mg/kg, M-DNA or MCC 0.02-2.0 mg/kg
Description: PC-3 human prostate cancer cells are implanted subcutaneously into 224 male nude BALB/c mice. The mice are divided into 28 groups of 8 mice (Table 11).
(§9) Saline, HA, M-DNA, MCC, HA+M-DNA and HA+MCC are administered intravenously on day 0 and at 3-day intervals for 4 weeks (10 injections) at which time the mice are sacrificed and tumor mass and number of metastases are determined.

LNCaP tumors (CD44 null) [14] = assay: Example 12: HA, M-DNA, MCC on LNCaP tumors in mice; assay type: in vivo, male nude BALB/c mice; conditions: vs Group 1 (saline); intravenously day 0 and at 3-day intervals for 4 weeks; HA 0.16-16.0 mg/kg, M-DNA or MCC 0.02-2.0 mg/kg
Description: Effect of saline, HA, M-DNA, MCC, HA+M-DNA and HA +MCC on LNCaP tumors in mice LNCaP human prostate cancer cells (CD44 null) are implanted subcutaneously into 224 male nude BALB/c mice. The mice are divided into 28 groups of 8 mice (Table 12).
as §9

[15] = molecular target: CD44 cell surface HA receptor (human) (UniProt P16070); assay: flow cytometry, FITC-CD44 on T-24 human bladder cancer cells (unstained cells: 3)
Sequence of UniProt P16070 (P16070 21-742): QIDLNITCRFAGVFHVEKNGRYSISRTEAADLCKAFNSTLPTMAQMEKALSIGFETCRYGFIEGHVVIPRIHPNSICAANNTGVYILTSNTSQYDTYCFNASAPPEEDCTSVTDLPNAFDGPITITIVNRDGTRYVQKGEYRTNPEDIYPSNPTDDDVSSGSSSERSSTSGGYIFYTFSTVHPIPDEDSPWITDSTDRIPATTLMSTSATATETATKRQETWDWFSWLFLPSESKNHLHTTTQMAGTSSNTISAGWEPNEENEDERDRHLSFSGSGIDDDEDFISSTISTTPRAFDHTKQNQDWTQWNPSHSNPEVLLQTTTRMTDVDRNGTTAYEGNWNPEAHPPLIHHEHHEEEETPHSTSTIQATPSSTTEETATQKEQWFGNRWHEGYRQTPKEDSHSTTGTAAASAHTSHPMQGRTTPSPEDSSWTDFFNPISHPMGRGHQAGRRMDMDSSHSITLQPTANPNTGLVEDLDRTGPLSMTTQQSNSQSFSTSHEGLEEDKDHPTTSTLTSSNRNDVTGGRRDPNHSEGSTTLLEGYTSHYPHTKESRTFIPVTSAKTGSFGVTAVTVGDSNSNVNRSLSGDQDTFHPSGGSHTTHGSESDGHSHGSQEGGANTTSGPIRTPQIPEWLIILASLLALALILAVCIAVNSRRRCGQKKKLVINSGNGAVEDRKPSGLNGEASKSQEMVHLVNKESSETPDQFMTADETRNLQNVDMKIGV

[16] = molecular target: CD44 cell surface HA receptor (human) (UniProt P16070); assay: flow cytometry, FITC-CD44 on Du-145 human prostate cancer cells (unstained cells: 3)
[17] = molecular target: CD44 cell surface HA receptor (human) (UniProt P16070); assay: flow cytometry, FITC-CD44 on MCF-7 human breast cancer cells (unstained cells: 3)
[18] = molecular target: CD44 cell surface HA receptor (human) (UniProt P16070); assay: flow cytometry, FITC-CD44 on PC-3 human prostate cancer cells (unstained cells: 6)
[19] = molecular target: CD44 cell surface HA receptor (human) (UniProt P16070); assay: flow cytometry, FITC-CD44 on UMUC-3 human bladder cancer cells (unstained cells: 3)
[20] = molecular target: CD44 cell surface HA receptor (human) (UniProt P16070); assay: flow cytometry, FITC-CD44 on RT-4 human bladder cancer cells (unstained cells: 4)
[21] = molecular target: CD44 cell surface HA receptor (human) (UniProt P16070); assay: flow cytometry, FITC-CD44 on HT-1376 human bladder cancer cells (unstained cells: 4)

In the case of `O=c1[nH]cc(F)c(=O)[nH]1` [5-FU, 5-fluorouracil], the inhibition at 1 µg/mL ([1]; Homo sapiens, 5-FU at 1.0 μg/ml alone (saline instead of HA)) is reported as 14%, the inhibition at 10 µg/mL [2] is reported as 18% and the number of metastasis (LNCaP tumors (CD44 null) [3]) is reported as “fewer metastases”. For the same compound, the tumor mass (LNCaP tumors (CD44 null) [3]) was “less tumor mass”, the number of metastases (PC3 tumors [4]) was “fewer metastases” and the tumor mass (PC3 tumors [4]) was “less tumor mass”. The number of metastases (B16F1 tumors [5]) was “fewer metastases” and the tumor mass (B16F1 tumors [5]) was “less tumor mass”.
With `N.N.[Cl][Pt][Cl]` [CIS, cisplatin] the “% INHIBITION of cell proliferation” value ([1]; CIS at 0.1 μg/ml alone (saline instead of HA)) was 2%, the number of metastasis (LNCaP tumors (CD44 null) [3]) was “fewer metastases” and the tumor mass (LNCaP tumors (CD44 null) [3]) was “less tumor mass”. For the same compound, the number of metastases (PC3 tumors [4]) was “fewer metastases”, the tumor mass (PC3 tumors [4]) was “less tumor mass” and the number of metastases (B16F1 tumors [5]) was “fewer metastases”. For the same compound, the tumor mass (B16F1 tumors [5]) was “less tumor mass”.
In the case of “(G1T)13G: synthetic 27 base oligonucleotide (GTGTGTGTGTGTGTGTGTGTGTGTGTG; listed as DNA, chemistry not given here)”, the “% INHIBITION of cell proliferation” value [6] is reported as 44%.
In the case of “GG(GT)1GG: synthetic 6 base oligonucleotide”, the “% INHIBITION of cell proliferation” value [6] is reported as 20%.
For Hyaluronic acid [<1.5 × 10^4 Da HA], the “% INHIBITION of cell proliferation” value ([7]; HA 8.0 μg/ml) was 5%, the “% INHIBITION of cell proliferation” value ([8]; HA 8.0 μg/ml) was 24% and the “% INHIBITION of cell proliferation” value [9] was 37%.
For Hyaluronic acid [HA], the number of metastases (B16F1 tumors [10]) was “fewer metastases”, the tumor mass (B16F1 tumors [10]) was “less tumor mass” and the “% INHIBITION of cell proliferation” value ([7]; HA 80.0 μg/ml) was 30%. The number of metastasis (LNCaP tumors (CD44 null) [3]) was “fewer metastases”, the tumor mass (LNCaP tumors (CD44 null) [3]) was “less tumor mass” and the effect on cancers [11] was “reduced or eliminated”. The “growth of cancer cells” value (colon-26 cancer cells) was “significantly inhibits the growth”, the reduced tumor volume [12] was over 85% and the “% INHIBITION of cell proliferation” value ([8]; HA 80.0 μg/ml) was 26%. The number of metastases (PC3 tumors [4]) was “fewer metastases”, the tumor mass (PC3 tumors [4]) was “less tumor mass” and the number of metastases (PC3 tumors [13]) was “fewer metastases”. For the same compound, the tumor mass (PC3 tumors [13]) was “less tumor mass”, the number of metastases (LNCaP tumors (CD44 null) [14]) was “fewer metastases” and the tumor mass (LNCaP tumors (CD44 null) [14]) was “less tumor mass”. The number of metastases (B16F1 tumors [5]) was “fewer metastases” and the tumor mass (B16F1 tumors [5]) was “less tumor mass”.
In the case of “fluorescent anti-HA receptor monoclonal antibody FITC-CD44 (clone G44-26 (C26), Pharmingen)”, the mean fluorescent units (mean fluorescent units) [15] is reported as 1800, the mean fluorescent units (mean fluorescent units) [16] is reported as 450 and the mean fluorescent units (mean fluorescent units) [17] is reported as 70. The mean fluorescent units (mean fluorescent units) [18] was 400, the mean fluorescent units (mean fluorescent units) [19] was 1800 and the mean fluorescent units (mean fluorescent units) [20] was 60. The mean fluorescent units (mean fluorescent units) [21] was 200.

From patent US20030176381A1, “Hyaluronic acid in the treatment of cancer” (priority 2002, published 2003)
